Experiments:
GST-hASK1 = GST-hASK1 (Homo sapiens (Human), UniProt Q99683); assay: ASK1 TR-FRET assay; assay type: biochemical; settings: 5 nM GST-hASK1, 100 μM ATP, 2 μM STK Substrate 3
Experimental: The protein kinase activity of 5 nM GST-hASK1(Life Technologies PV4011) was assayed with 100 μM ATP and 2 μM of HTRF biotinylated STK Substrate 3 (CisBio Kit 62ST3PEJ), at ambient temperature in 25 mM Hepes, pH 7.5, 50 mM NaCl, 10 mM MgCl2, 0.02% Brij-35, 1 mM DTT, and 1% DMSO.
After a 10 minute pre-incubation, ASK1 protein kinase activity was initiated by addition of 10 μL of 300 μM ATP.

ASK1/MAP3K5 = ASK1/MAP3K5 (Homo sapiens (Human), UniProt Q99683); assay: ASK1/MAP3K5 assay by Reaction Biology Corp.; assay type: biochemical; settings: 20 μM myelin basic protein (MBP), 10 μM ATP
Chain of ASK1/MAP3K5 (Q99683 whole entry): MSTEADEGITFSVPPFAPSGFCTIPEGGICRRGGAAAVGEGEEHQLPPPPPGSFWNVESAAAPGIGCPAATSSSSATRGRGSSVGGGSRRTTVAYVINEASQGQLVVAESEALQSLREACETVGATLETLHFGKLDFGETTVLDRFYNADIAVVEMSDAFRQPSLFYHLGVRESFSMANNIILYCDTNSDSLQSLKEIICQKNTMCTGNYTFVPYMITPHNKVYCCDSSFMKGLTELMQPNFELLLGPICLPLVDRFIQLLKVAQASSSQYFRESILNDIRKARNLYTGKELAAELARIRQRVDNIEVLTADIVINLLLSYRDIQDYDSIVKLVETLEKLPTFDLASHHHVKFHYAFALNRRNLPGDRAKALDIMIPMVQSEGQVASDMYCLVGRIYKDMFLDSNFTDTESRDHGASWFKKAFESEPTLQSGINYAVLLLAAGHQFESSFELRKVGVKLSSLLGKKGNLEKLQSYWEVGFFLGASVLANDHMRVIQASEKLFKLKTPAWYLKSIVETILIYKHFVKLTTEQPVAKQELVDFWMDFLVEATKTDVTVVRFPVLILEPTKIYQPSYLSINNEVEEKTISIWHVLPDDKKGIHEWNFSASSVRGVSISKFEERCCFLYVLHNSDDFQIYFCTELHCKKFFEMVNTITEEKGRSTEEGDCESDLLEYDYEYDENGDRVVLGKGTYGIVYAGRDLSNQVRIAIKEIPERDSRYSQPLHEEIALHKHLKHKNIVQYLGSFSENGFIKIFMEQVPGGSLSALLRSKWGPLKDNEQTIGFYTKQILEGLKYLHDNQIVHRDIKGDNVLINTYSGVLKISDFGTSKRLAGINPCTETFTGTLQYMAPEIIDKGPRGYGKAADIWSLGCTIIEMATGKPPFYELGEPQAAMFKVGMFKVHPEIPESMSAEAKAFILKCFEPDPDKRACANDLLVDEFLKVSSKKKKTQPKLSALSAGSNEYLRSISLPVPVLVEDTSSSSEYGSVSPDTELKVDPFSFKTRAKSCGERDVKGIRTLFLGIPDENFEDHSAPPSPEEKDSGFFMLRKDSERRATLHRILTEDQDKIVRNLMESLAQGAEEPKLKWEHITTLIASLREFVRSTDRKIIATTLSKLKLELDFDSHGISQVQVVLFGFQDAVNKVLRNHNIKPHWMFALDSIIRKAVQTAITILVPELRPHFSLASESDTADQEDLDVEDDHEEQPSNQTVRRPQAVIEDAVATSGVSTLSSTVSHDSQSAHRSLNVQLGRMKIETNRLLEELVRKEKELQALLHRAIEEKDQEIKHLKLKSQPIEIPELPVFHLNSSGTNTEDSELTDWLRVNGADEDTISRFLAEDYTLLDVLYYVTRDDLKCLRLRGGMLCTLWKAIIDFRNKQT
Experimental: ASK1/MAP3K5 was used as the protein kinase and 20 μM of myelin basic protein (MBP) and 10 μM ATP were used as the substrate.

[1] = molecular target: ASK1 T838 auto phosphorylation in HEK-293T cells (Homo sapiens (Human), UniProt Q99683); assay: ASK1 (AUTO PHOS T838) assay, MSD format; assay type: cell-based; settings: HEK 293T cells transfected with ASK1-V5 full length plasmid, compounds 1 hr at 37° C.; read-out: IC50
Chain of ASK1 T838 auto phosphorylation in HEK-293T cells (Q99683 whole entry): as above

Chain of GST-hASK1 (Q99683 649-946): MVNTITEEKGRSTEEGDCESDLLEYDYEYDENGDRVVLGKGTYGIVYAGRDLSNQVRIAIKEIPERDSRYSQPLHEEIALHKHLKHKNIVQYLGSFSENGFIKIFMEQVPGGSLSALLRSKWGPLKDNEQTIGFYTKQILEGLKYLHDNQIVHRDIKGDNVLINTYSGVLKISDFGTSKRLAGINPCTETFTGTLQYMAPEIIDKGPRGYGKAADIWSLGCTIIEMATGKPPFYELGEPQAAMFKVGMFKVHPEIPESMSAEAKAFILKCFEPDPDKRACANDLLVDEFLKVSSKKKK

Q: With `O=C1Nc2cccc(n2)-c2nncn2CCCCOc2ccc(N3CC4CC(C3)O4)cc21` [Example 6, 5^5-(6-Oxa-3-azabicyclo[3.1.1]heptan-3-yl)-1^4H-6-oxa-3-aza-2(2,6)-pyridina-1(3,4)-triazola-5(1,2)-benzenacyclodecaphan-4-one] as the compound, how does the IC50 (GST-hASK1) read?
A: < 0.1 µM

Q: What about the IC50 (ASK1/MAP3K5) of the same compound?
A: < 0.1 µM

Q: And the IC50 [1]?
A: < 1 µM

Q: `O=C1Nc2cccc(n2)-c2nncn2CCCCOc2ccc(C3CCOCC3)cc21` [Example 17, 5^5-(Tetrahydro-2H-pyran-4-yl)-1^4H-6-oxa-3-aza-2(2,6)-pyridina-1(3,4)-triazola-5(1,2)-benzenacyclodecaphan-4-one] was tested. Which IC50 (GST-hASK1) did it give?
A: < 0.1 µM

Q: And the IC50 (ASK1/MAP3K5)?
A: < 0.1 µM

Q: What about the IC50 [1] of the same compound?
A: < 1 µM

Q: `N#Cc1ccc2c(c1)C(=O)Nc1cccc(n1)-c1nncn1CCCCO2` [Example 20, 4-Oxo-1^4H-6-oxa-3-aza-2(2,6)-pyridina-1(3,4)-triazola-5(1,2)-benzenacyclodecaphane-5^5-carbonitrile] was tested. Which IC50 (GST-hASK1) did it give?
A: < 0.1 µM

Q: And the IC50 (ASK1/MAP3K5)?
A: < 0.1 µM

Q: And the IC50 [1]?
A: < 1 µM

Q: With `O=C1Nc2cccc(n2)-c2nncn2CCCCCOc2ccc(N3CC4(COC4)C3)cc21` [Example 173, 5^5-(2-Oxa-6-azaspiro[3.3]heptan-6-yl)-1^4H-6-oxa-3-aza-2(2,6)-pyridina-1(3,4)-triazola-5(1,2)-benzenacycloundecaphan-4-one] as the compound, how does the IC50 (GST-hASK1) read?
A: < 0.1 µM

Q: What about the IC50 (ASK1/MAP3K5) of the same compound?
A: < 0.1 µM

Q: What about the IC50 [1] of the same compound?
A: < 1 µM

Q: Which results are given for `C[C@H]1CCCOc2ccc(-c3cnn(C)c3)cc2C(=O)Nc2cccc(n2)-c2nncn21` [Example 96, (S)-10-Methyl-5^5-(1-methyl-1H-pyrazol-4-yl)-1^4H-6-oxa-3-aza-2(2,6)-pyridina-1(3,4)-triazola-5(1,2)-benzenacyclodecaphan-4-one]?
A: IC50 (GST-hASK1): < 0.1 µM; IC50 (ASK1/MAP3K5): < 0.1 µM; IC50 [1]: < 1 µM

Q: With `O=C1Nc2cccc(n2)-c2nncn2CCCCOc2ccc(-c3ccncc3)cc21` [Example 27, 5^5-(Pyridin-4-yl)-1^4H-6-oxa-3-aza-2(2,6)-pyridina-1(3,4)-triazola-5(1,2)-benzenacyclodecaphan-4-one] as the compound, how does the IC50 (GST-hASK1) read?
A: < 0.1 µM

Q: And the IC50 (ASK1/MAP3K5)?
A: < 0.1 µM

Q: What about the IC50 [1] of the same compound?
A: < 1 µM

Q: With `Cc1ncn(-c2ccc3c(c2)C(=O)Nc2cccc(n2)-c2nncn2CCCCO3)c1C` [Example 42, 5^5-(4,5-Dimethyl-1H-imidazol-1-yl)-1^4H-6-oxa-3-aza-2(2,6)-pyridina-1(3,4)-triazola-5(1,2)-benzenacyclodecaphan-4-one] as the compound, how does the IC50 (GST-hASK1) read?
A: < 0.1 µM

Q: What about the IC50 (ASK1/MAP3K5) of the same compound?
A: < 0.1 µM

Q: What about the IC50 [1] of the same compound?
A: < 1 µM

Q: Which IC50 (GST-hASK1) does the source give for `Cc1ccc2c(c1)C(=O)Nc1cccc(n1)-c1nncn1CCCCO2` [Example 18, 5^5-Methyl-1^4H-6-oxa-3-aza-2(2,6)-pyridina-1(3,4)-triazola-5(1,2)-benzenacyclodecaphan-4-one] here?
A: < 0.1 µM

Q: And the IC50 (ASK1/MAP3K5)?
A: < 0.1 µM

Q: What about the IC50 [1] of the same compound?
A: < 1 µM

Q: `O=C1Nc2cccc(n2)-c2nncn2CCCCOc2ccc(C3CCOC3)cc21` (racemic) [Example 15, rac-5^5-(Tetrahydrofuran-3-yl)-1^4H-6-oxa-3-aza-2(2,6)-pyridina-1(3,4)-triazola-5(1,2)-benzenacyclodecaphan-4-one] was tested. Which IC50 (GST-hASK1) did it give?
A: < 0.1 µM

Q: What about the IC50 (ASK1/MAP3K5) of the same compound?
A: < 0.1 µM

Q: What about the IC50 [1] of the same compound?
A: < 1 µM

Q: What does the source list for `Cc1nn(C)cc1-c1ccc2c(c1)C(=O)Nc1cccc(n1)-c1nncn1CCCCO2` [Example 32, 5^5-(1,3-Dimethyl-1H-pyrazol-4-yl)-1^4H-6-oxa-3-aza-2(2,6)-pyridina-1(3,4)-triazola-5(1,2)-benzenacyclodecaphan-4-one]?
A: IC50 (GST-hASK1): < 0.1 µM; IC50 (ASK1/MAP3K5): < 0.1 µM; IC50 [1]: < 1 µM

Q: How did the IC50 (GST-hASK1) turn out when `O=C1Nc2cccc(n2)-c2nncn2CCCCOc2ccc(N3C4COCC3C4)cc21` [Example 8, 5^5-(3-Oxa-6-azabicyclo[3.1.1]heptan-6-yl)-1^4H-6-oxa-3-aza-2(2,6)-pyridina-1(3,4)-triazola-5(1,2)-benzenacyclodecaphan-4-one] was run?
A: < 0.1 µM

Q: What about the IC50 (ASK1/MAP3K5) of the same compound?
A: < 0.1 µM

Q: And the IC50 [1]?
A: 1 to 10 µM

Q: Which results are given for `Cc1nn(C)c(C)c1-c1ccc2c(c1)C(=O)Nc1cccc(n1)-c1nncn1CCCCO2` [Example 33, 5^5-(1,3,5-Trimethyl-1H-pyrazol-4-yl)-1^4H-6-oxa-3-aza-2(2,6)-pyridina-1(3,4)-triazola-5(1,2)-benzenacyclodecaphan-4-one]?
A: IC50 (GST-hASK1): < 0.1 µM; IC50 (ASK1/MAP3K5): < 0.1 µM; IC50 [1]: < 1 µM

Q: What does the source list for `O=C1Nc2cccc(n2)-c2nncn2CCCCCOc2ccc(N3CCOCC3)cc21` [Example 172, 5^5-Morpholino-1^4H-6-oxa-3-aza-2(2,6)-pyridina-1(3,4)-triazola-5(1,2)-benzenacycloundecaphan-4-one]?
A: IC50 (GST-hASK1): < 0.1 µM; IC50 (ASK1/MAP3K5): < 0.1 µM; IC50 [1]: < 1 µM

Q: `Cc1cc(-c2ccc3c(c2)C(=O)Nc2cccc(n2)-c2nncn2CCCCO3)n(C)n1` [Example 34, 5^5-(1,3-Dimethyl-1H-pyrazol-5-yl)-1^4H-6-oxa-3-aza-2(2,6)-pyridina-1(3,4)-triazola-5(1,2)-benzenacyclodecaphan-4-one] was tested. Which IC50 (GST-hASK1) did it give?
A: < 0.1 µM

Q: And the IC50 (ASK1/MAP3K5)?
A: < 0.1 µM

Q: What about the IC50 [1] of the same compound?
A: < 1 µM

Q: What does the source list for `O=C1Nc2cccc(n2)-c2nncn2CCCCOc2ccc(N3CC(F)(F)C3)cc21` [Example 9, 5^5-(3,3-Difluoroazetidin-1-yl)-1^4H-6-oxa-3-aza-2(2,6)-pyridina-1(3,4)-triazola-5(1,2)-benzenacyclodecaphan-4-one]?
A: IC50 (GST-hASK1): < 0.1 µM; IC50 (ASK1/MAP3K5): < 0.1 µM; IC50 [1]: < 1 µM

Q: For `O=C1Nc2cccc(n2)-c2nncn2CCCCOc2ccc(-n3cnc(C4CC4)c3)cc21` [Example 22, 5^5-(4-Cyclopropyl-1H-imidazol-1-yl)-1^4H-6-oxa-3-aza-2(2,6)-pyridina-1(3,4)-triazola-5(1,2)-benzenacyclodecaphan-4-one], which IC50 (GST-hASK1) is on record?
A: < 0.1 µM

Q: And the IC50 (ASK1/MAP3K5)?
A: < 0.1 µM

Q: And the IC50 [1]?
A: < 1 µM

Q: What does the source list for `Cn1nccc1-c1ccc2c(c1)C(=O)Nc1cccc(n1)-c1nncn1CCCCO2` [Example 23, 5^5-(1-Methyl-1H-pyrazol-5-yl)-1^4H-6-oxa-3-aza-2(2,6)-pyridina-1(3,4)-triazola-5(1,2)-benzenacyclodecaphan-4-one]?
A: IC50 (GST-hASK1): < 0.1 µM; IC50 (ASK1/MAP3K5): < 0.1 µM; IC50 [1]: < 1 µM

Q: What does the source list for `Cc1cn(-c2ccc3c(c2)C(=O)Nc2cccc(n2)-c2nncn2[C@H](C)CCCO3)cn1` [Example 93, (R)-10-Methyl-5^5-(4-methyl-1H-imidazol-1-yl)-1^4H-6-oxa-3-aza-2(2,6)-pyridina-1(3,4)-triazola-5(1,2)-benzenacyclodecaphan-4-one]?
A: IC50 (GST-hASK1): < 0.1 µM; IC50 (ASK1/MAP3K5): < 0.1 µM; IC50 [1]: < 1 µM

Q: Which IC50 (GST-hASK1) does the source give for `O=C1Nc2cccc(n2)-c2nncn2CCCCOc2ccc(-c3cccnc3)cc21` [Example 26, 5^5-(Pyridin-3-yl)-1^4H-6-oxa-3-aza-2(2,6)-pyridina-1(3,4)-triazola-5(1,2)-benzenacyclodecaphan-4-one] here?
A: < 0.1 µM

Q: What about the IC50 (ASK1/MAP3K5) of the same compound?
A: < 0.1 µM

Q: What about the IC50 [1] of the same compound?
A: < 1 µM

Q: Which IC50 (GST-hASK1; class given in words) does the source give for `CN1C(=O)c2cc(Br)ccc2OCCCCn2cnnc2-c2cccc1n2` [Example 152, 5^5-Bromo-3-methyl-1^4H-6-oxa-3-aza-2(2,6)-pyridina-1(3,4)-triazola-5(1,2)-benzenacyclodecaphan-4-one] here?
A: ≥ 10 µM

Q: What about the IC50 [1] of the same compound?
A: > 10 µM

Q: Which IC50 (GST-hASK1) does the source give for `Cc1cn(-c2ccc3c(c2)C(=O)Nc2cccc(n2)-c2nncn2[C@@H](C)CCCO3)cn1` [Example 94, (S)-10-Methyl-5^5-(4-methyl-1H-imidazol-1-yl)-1^4H-6-oxa-3-aza-2(2,6)-pyridina-1(3,4)-triazola-5(1,2)-benzenacyclodecaphan-4-one] here?
A: < 0.1 µM

Q: And the IC50 (ASK1/MAP3K5)?
A: < 0.1 µM

Q: And the IC50 [1]?
A: < 1 µM

Q: For `Cn1cncc1-c1ccc2c(c1)C(=O)Nc1cccc(n1)-c1nncn1CCCCO2` [Example 29, 5^5-(1-Methyl-1H-imidazol-5-yl)-1^4H-6-oxa-3-aza-2(2,6)-pyridina-1(3,4)-triazola-5(1,2)-benzenacyclodecaphan-4-one], which IC50 (GST-hASK1) is on record?
A: < 0.1 µM

Q: And the IC50 (ASK1/MAP3K5)?
A: < 0.1 µM

Q: And the IC50 [1]?
A: < 1 µM

Q: For `O=C1Nc2cccc(n2)-c2nncn2CCCCOc2ccc(N3CCCC(F)(F)C3)cc21` [Example 11, 5^5-(3,3-Difluoropiperidin-1-yl)-1^4H-6-oxa-3-aza-2(2,6)-pyridina-1(3,4)-triazola-5(1,2)-benzenacyclodecaphan-4-one], which IC50 (GST-hASK1) is on record?
A: < 0.1 µM

Q: What about the IC50 (ASK1/MAP3K5) of the same compound?
A: < 0.1 µM

Q: And the IC50 [1]?
A: < 1 µM

Q: For `CCN1CCN(c2ccc3c(c2)C(=O)Nc2cccc(n2)-c2nncn2CCCCO3)CC1` [Example 13, 5^5-(4-Ethylpiperazin-1-yl)-1^4H-6-oxa-3-aza-2(2,6)-pyridina-1(3,4)-triazola-5(1,2)-benzenacyclodecaphan-4-one], which IC50 (GST-hASK1) is on record?
A: < 0.1 µM

Q: And the IC50 [1]?
A: < 1 µM

Q: For `O=C1Nc2cccc(n2)-c2nncn2C/C=C/COc2ccc(F)cc21` [Example 158, (E)-5^5-Fluoro-1^4H-6-oxa-3-aza-2(2,6)-pyridina-1(3,4)-triazola-5(1,2)-benzenacyclodecaphan-8-en-4-one], which IC50 (GST-hASK1) is on record?
A: 0.1 to 1 µM

Q: And the IC50 [1]?
A: 1 to 10 µM

Q: For `C[C@@H]1CCCOc2ccc(-c3cnn(C)c3)cc2C(=O)Nc2cccc(n2)-c2nncn21` [Example 95, (R)-10-Methyl-5^5-(1-methyl-1H-pyrazol-4-yl)-1^4H-6-oxa-3-aza-2(2,6)-pyridina-1(3,4)-triazola-5(1,2)-benzenacyclodecaphan-4-one], which IC50 (GST-hASK1) is on record?
A: 0.1 to 1 µM

Q: And the IC50 [1]?
A: 1 to 10 µM

Q: `O=C1Nc2cccc(n2)-c2nncn2C/C=C/COc2cc(F)ccc21` [Example 157, (E)-5^4-Fluoro-1^4H-6-oxa-3-aza-2(2,6)-pyridina-1(3,4)-triazola-5(1,2)-benzenacyclodecaphan-8-en-4-one] was tested. Which IC50 (GST-hASK1) did it give?
A: 0.1 to 1 µM

Q: What about the IC50 [1] of the same compound?
A: 1 to 10 µM
